Measurements published in the supplement of paper PMC11061612.

Columns and labels:
Assay in all cases: combination Emax (second highest fraction inhibited in the dose matrix, 72 h); higher = more inhibition; extreme values may be limits of the assay
[1] = tested on: HT-1376 (Bladder Carcinoma)
Outline: (§1)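 After 24 hours at 37°C and 5% CO2 in 1536-well plates, cells in DMEM/F12 or RPMI plus 10% FBS received two-drug dose matrices for 72 hours. Viability came from CellTiter-Glo 2.0 luminescence and was scaled as inhibition, anchored at 0 by vehicle wells and at 1 by blank wells. Combination Emax is taken as the second-highest inhibition in the matrix, and Bliss excess as the observed combination effect less EA + EB − EA·EB, with EA and EB the single-agent effects.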

[2] = tested on: LU-135 (Small Cell Lung Carcinoma)
Outline: as §1

[3] = tested on: CAL-148 (Breast Carcinoma)
Outline: as §1

ES4 (Ewing's Sarcoma) = tested on: ES4 (Ewing's Sarcoma)
Outline: as §1

[4] = tested on: Hs-578-T (Breast Carcinoma)
Outline: as §1

[5] = tested on: HuP-T4 (Pancreatic Carcinoma)
Outline: as §1

AGS (Gastric Carcinoma) = tested on: AGS (Gastric Carcinoma)
Outline: as §1

[6] = tested on: TE-15 (Esophageal Squamous Cell Carcinoma)
Outline: as §1

HOS (Osteosarcoma) = tested on: HOS (Osteosarcoma)
Outline: as §1

[7] = tested on: LS-180 (Colorectal Carcinoma)
Outline: as §1

[8] = tested on: TCCSUP (Bladder Carcinoma)
Outline: as §1

42-MG-BA (Glioblastoma) = tested on: 42-MG-BA (Glioblastoma)
Outline: as §1

[9] = tested on: Ramos-2G6-4C10 (Burkitt's Lymphoma)
Outline: as §1

[10] = tested on: CCRF-CEM (T-Lymphoblastic Leukemia)
Outline: as §1

[11] = tested on: LB831-BLC (Bladder Carcinoma)
Outline: as §1

NOS-1 (Osteosarcoma) = tested on: NOS-1 (Osteosarcoma)
Outline: as §1

[12] = tested on: COLO-205 (Colorectal Carcinoma)
Outline: as §1

[13] = tested on: DoTc2-4510 (Cervical Carcinoma)
Outline: as §1

[14] = tested on: KYSE-520 (Esophageal Squamous Cell Carcinoma)
Outline: as §1

[15] = tested on: SNU-5 (Gastric Carcinoma)
Outline: as §1

| Structure (SMILES) | combination Emax [1] | combination Emax [2] | combination Emax [3] | combination Emax (ES4 (Ewing's Sarcoma)) | combination Emax [4] | combination Emax [5] | combination Emax (AGS (Gastric Carcinoma)) | combination Emax [6] | combination Emax (HOS (Osteosarcoma)) | combination Emax [7] | combination Emax [8] | combination Emax (42-MG-BA (Glioblastoma)) | combination Emax [9] | combination Emax [10] | combination Emax [11] | combination Emax (NOS-1 (Osteosarcoma)) | combination Emax [12] | combination Emax [13] | combination Emax [14] | combination Emax [15] |
| --- | --- | --- | --- | --- | --- | --- | --- | --- | --- | --- | --- | --- | --- | --- | --- | --- | --- | --- | --- | --- |
| CN(C)CCCOc1ccc(-c2ccc3ncc4c(c3c2)n(C2CCOCC2)c(=O)n4C)cn1 [AZD0156] + C=CCn1c(=O)c2cnc(Nc3ccc(N4CCN(C)CC4)cc3)nc2n1-c1cccc(C(C)(C)O)n1 [AZD1775] (first compound max 1 µM, partner max 1 µM) | 0.294 | 0.644 | 0.966 | 0.438 | 0.784 | 0.217 | 0.478 | 0.454 | 0.24 | 0.452 | 0.356 | 0.29 | 0.995 | 1 | 0.388 | 0.247 | 0.341 | 0.473 | 0.32 | 0.56 |
| CN(C)CCCOc1ccc(-c2ccc3ncc4c(c3c2)n(C2CCOCC2)c(=O)n4C)cn1 [AZD0156] + CCN(CCO)CCCOc1ccc2c(Nc3cc(CC(=O)Nc4cccc(F)c4)[nH]n3)ncnc2c1 [AZD2811] (first compound max 1 µM, 7x7, partner max 1 µM) | 0.0989 | 0.925 | 0.935 | 0.159 | 0.565 | 0.244 | 0.238 | 0.0454 | 0.0916 | 0.261 | 0.111 | 0.444 | 0.528 | 0.983 | 0.0797 | 0.119 | 0.854 | 0.186 | 0.224 | 0.162 |
| CN(C)CCCOc1ccc(-c2ccc3ncc4c(c3c2)n(C2CCOCC2)c(=O)n4C)cn1 [AZD0156] + C[C@@H]1COCCN1C2=NC(=NC(=C2)C3(CC3)[S@](=N)(=O)C)C4=C5C=CNC5=NC=C4 [AZD6738] (first compound max 1 µM, 7x7, partner max 10 µM) | 0.655 | 0.599 | 0.791 | 0.844 | 0.885 | 0.46 | 0.706 | 0.734 | 0.706 | 0.694 | 0.591 | 0.701 | 0.981 | 0.99 | 0.23 | 0.255 | 0.247 | 0.811 | 0.603 | 0.882 |
| CN(C)CCCOc1ccc(-c2ccc3ncc4c(c3c2)n(C2CCOCC2)c(=O)n4C)cn1 [AZD0156] + O=C(c1cc(Cc2n[nH]c(=O)c3ccccc23)ccc1F)N1CCN(C(=O)C2CC2)CC1 [Olaparib] (first compound max 3 µM, partner max 3 µM) | 0.115 | 0.426 | 0.604 | 0.658 | 0.519 | 0.289 | 0.392 | 0.253 | 0.241 | 0.24 | 0.279 | 0.402 | 0.745 | 0.46 | 0.26 | 0.328 | 0.365 | 0.206 | 0.324 | 0.439 |
| C=CCn1c(=O)c2cnc(Nc3ccc(N4CCN(C)CC4)cc3)nc2n1-c1cccc(C(C)(C)O)n1 [AZD1775] + C1CN(CCC1(C(=O)N[C@@H](CCO)C2=CC=C(C=C2)Cl)N)C3=NC=NC4=C3C=CN4 [Capivasertib] (first compound max 3 µM, partner max 3 µM) | 0.355 | 0.669 | 0.92 | 0.521 | 0.841 | 0.691 | 0.976 | 0.724 | 0.831 | 0.734 | 0.787 | 0.733 | 0.99 | 1 | 0.75 | 0.606 | 0.832 | 0.723 | 0.598 | 0.7 |
| COc1nnc2ccc(N3CCC(c4ccc(OCCN5CCN(C)C(=O)[C@H]5C)cc4)CC3)nn12 [AZD5153] + CN(CC[C@H](CSC1=CC=CC=C1)NC2=C(C=C(C=C2)S(=O)(=O)NC(=O)C3=CC=C(C=C3)N4CCC(CC4)[C@H](C5=CC=CC=C5C6=CC=C(C=C6)Cl)O)S(=O)(=O)C(F)(F)F)CCO [AZD4320] (first compound max 1 µM, 7x7, partner max 1 µM) | – | 1 | – | 0.795 | – | 0.479 | 0.918 | – | – | – | 0.297 | 0.868 | – | – | – | 0.936 | 0.95 | – | 0.58 | 0.506 |
| Cc1c2c(nn1C)CSCc1cc(n(C)n1)CSc1cc(c3ccccc3c1)OCCCc1c(C(=O)O)n(C)c3c-2c(Cl)ccc13 [AZD5991] + C=CCn1c(=O)c2cnc(Nc3ccc(N4CCN(C)CC4)cc3)nc2n1-c1cccc(C(C)(C)O)n1 [AZD1775] (first compound max 1 µM, partner max 1 µM) | 0.459 | 0.581 | 1 | 0.502 | 0.874 | 0.551 | 0.781 | 0.548 | 0.432 | 0.47 | 0.596 | 0.986 | 1 | 1 | 0.519 | 0.982 | 0.684 | 0.523 | – | 0.565 |
| Cc1c2c(nn1C)CSCc1cc(n(C)n1)CSc1cc(c3ccccc3c1)OCCCc1c(C(=O)O)n(C)c3c-2c(Cl)ccc13 [AZD5991] + C[C@@H](Nc1cc(F)cc(F)c1)c1cc(C(=O)N(C)C)cc2c(=O)cc(N3CCOCC3)oc12 [AZD8186] (first compound max 1 µM, 7x7, partner max 3 µM) | 0.225 | 0.417 | 0.335 | 0.305 | 0.738 | 0.442 | 0.246 | 0.223 | 0.174 | – | 0.227 | 0.963 | 0.959 | 0.27 | 0.366 | 0.84 | 0.14 | 0.384 | 0.412 | 0.427 |
| Cc1c2c(nn1C)CSCc1cc(n(C)n1)CSc1cc(c3ccccc3c1)OCCCc1c(C(=O)O)n(C)c3c-2c(Cl)ccc13 [AZD5991] + Cn1cnc2c(F)c(Nc3ccc(Br)cc3Cl)c(C(=O)NOCCO)cc21 [Selumetinib] (first compound max 1 µM, 7x7, partner max 3 µM) | 0.272 | 0.22 | 0.329 | – | 0.54 | 0.957 | 0.964 | 0.317 | 0.229 | 0.589 | 0.227 | 0.988 | 0.998 | 0.325 | 0.392 | 0.895 | 0.828 | 0.432 | 0.355 | 0.495 |
| C[C@@H]1COCCN1c1cc(C2([S@](C)(=N)=O)CC2)nc(-c2ccnc3[nH]ccc23)n1 [AZD6738] + O=C(c1cc(Cc2n[nH]c(=O)c3ccccc23)ccc1F)N1CCN(C(=O)C2CC2)CC1 [Olaparib] (first compound max 10 µM, 7x7, partner max 10 µM) | 0.456 | 0.604 | 0.935 | 0.817 | 0.898 | 0.331 | 0.604 | 0.738 | 0.685 | 0.733 | 0.646 | 0.576 | 0.779 | 1 | 0.373 | 0.326 | 0.301 | 0.7 | – | 0.909 |
| CS(=O)(=O)CCNCc1ccc(-c2ccc3ncnc(Nc4ccc(OCc5cccc(F)c5)c(Cl)c4)c3c2)o1 [Lapatinib] + NC1(c2ccc(-c3nc4ccn5c(=O)[nH]nc5c4cc3-c3ccccc3)cc2)CCC1 [MK-2206] (first compound max 10 µM, 7x7, partner max 10 µM) | 0.177 | – | 0.996 | – | 0.936 | – | – | 0.831 | 0.561 | 0.795 | – | – | 0.954 | 0.892 | 0.39 | – | – | 0.888 | – | 0.387 |
| CC(=O)c1c(C)c2cnc(Nc3ccc(N4CCNCC4)cn3)nc2n(C2CCCC2)c1=O [Palbociclib] + CN(CC[C@H](CSC1=CC=CC=C1)NC2=C(C=C(C=C2)S(=O)(=O)NC(=O)C3=CC=C(C=C3)N4CCC(CC4)[C@H](C5=CC=CC=C5C6=CC=C(C=C6)Cl)O)S(=O)(=O)C(F)(F)F)CCO [AZD4320] (first compound max 10 µM, 7x7, partner max 1 µM) | – | 1 | – | 0.485 | – | 0.208 | 0.823 | – | – | – | 0.364 | 0.511 | – | – | – | 0.952 | 0.868 | – | 0.477 | 0.334 |
| CCc1c2c(nc3ccc(O)cc13)-c1cc3c(c(=O)n1C2)COC(=O)[C@]3(O)CC [SN-38] + O=C(c1cc(Cc2n[nH]c(=O)c3ccccc23)ccc1F)N1CCN(C(=O)C2CC2)CC1 [Olaparib] (first compound max 0.3 µM, 7x7, partner max 10 µM) | 0.0829 | 0.843 | 0.96 | 0.767 | 0.709 | 0.948 | 0.884 | 0.811 | 0.96 | 0.748 | 0.665 | 1 | 0.996 | 1 | 0.85 | 0.134 | 0.618 | 0.988 | – | – |
